Earlier results, collected in patent US20090093463A1, “NOVEL COMPOUNDS OF SUBSTITUTED AND UNSUBTITUTED ADAMANTYL AMIDES” (AGOURON PHARMACEUTICALS INC., priority 2004, published 2009).

Legend:
[1] = target: T1, 11-β-hsd-1 (Homo sapiens, UniProt P28845); details: healthy human volunteers
T1 construct: host or cells: normal subjects (in vivo)

[2] = target: T1, 11-β-hsd-1; details: ingestion, normal subjects

T1 sequence (P28845 whole entry): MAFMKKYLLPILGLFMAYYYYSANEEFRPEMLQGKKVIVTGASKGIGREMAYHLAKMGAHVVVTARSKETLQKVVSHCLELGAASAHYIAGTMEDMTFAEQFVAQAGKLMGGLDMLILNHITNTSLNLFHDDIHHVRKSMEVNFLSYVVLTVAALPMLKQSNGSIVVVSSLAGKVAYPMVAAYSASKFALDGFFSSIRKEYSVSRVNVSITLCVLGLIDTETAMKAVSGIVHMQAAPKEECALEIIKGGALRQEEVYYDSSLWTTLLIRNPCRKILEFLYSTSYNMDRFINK

In the case of `CC1(C)[C@@H](OC(=O)CCC(=O)O)CC[C@]2(C)[C@H]3C(=O)C=C4[C@@H]5C[C@@](C)(C(=O)O)CC[C@]5(C)CC[C@@]4(C)[C@]3(C)CC[C@@H]12` [carbenoxolone], the hepatic insulin sensitivity [1] is listed as “improved” and the “reduction of intraocular pressure” value [2] is listed as 20%.
